Source: patent publication US9878007B2, “Syndecan peptides and polypeptides as inhibitors of vascular endothelial growth factor receptor-2 (VEGFR2) and very late antigen-4 (VLA-4)” (Wisconsin Alumni Research Foundation, priority 2015, dated 2018)

Experiments:
[1] = system: P3x63Ag8 mouse myeloma cells; assay: Adhesion of P3x63Ag8 myeloma cells to FN; format: cell-based; settings: 30 uM peptide, 2.5 hr
Protocol: (§1) FIG. 7A-B. S1ED^214-236, specific for VEGFR2 coupling to VLA-4, blocks myeloma cell invasion but not adhesion. (FIG. 7A) P3x63Ag8 mouse myeloma cells are plating on the VLA-4 ligand FN in the presence or absence of 30 uM S1ED^210-233 (SEQ ID No: 4) or S1ED^214-236 (SEQ ID No: 7) for 2.5 hr. (FIG. 7B) P3x63Ag8 myeloma cells are plated on FN-coated filters in the presence of HPSE inhibitor OGT2115, VLA-4 blocking antibody P1H4, VEGFR2 inhibitor Vandetanib or S1ED^210-233 or S1ED^214-236 and allowed to migrate through the filter for 16 hr. Small black dots are the pores in the filter.
Nitrocellulose-coated slides were coated for 2 hr at 37° C. with 40 μg/ml FN (kindly provided by Dr. Donna Peters, University of Wisconsin-Madison) or 5 μg/ml recombinant VCAM-1/Fc chimera (R&D Systems) in calcium and magnesium-free PBS (CMF-PBS; 135 mM NaCl, 2.7 mM KCl, 10.2 mM Na2HPO4-7H20 and 1.75 mM KH2PO4, pH7.4). Slides were blocked for 1 hr at 37° C. with RPMI 1640 containing 1% heat-denatured BSA (plating medium). Cells in plating medium were allowed to attach and spread for 2.5 hr at 37° C. Slides were fixed in 4% EM grade paraformaldehyde (Electron Microscopy Sciences) in CMF-PBS and labeled for 30 min in 0.13 μM rhodamine phalloidin (Invitrogen) in CMF-PBS. Coverslips were mounted in non-fluorescing mounting medium (Immumount; Thermo Shandon) and allowed to dry. […]

[2] = system: P3x63Ag8 mouse myeloma cells; assay: Invasion of P3x63Ag8 myeloma cells through FN-coated filters; format: cell-based; settings: 16 hr
Protocol: as §1
The bottom chambers of Transwell filter chambers (8 μm pores; Corning) were coated with 40 μg/ml of FN. Cells (5×10^5 in 0.2 ml plating medium) were placed in the upper chamber and incubated for 16 hr at 37° C. in the CO2 incubator. After incubation, cells in the upper chamber were removed and cells on the bottom side of the filter were fixed in 4% paraformaldehyde (PFA) and stained with 0.1% Crystal Violet before imaging. Cells from at least five random fields were counted.

HMEC-1 cells = assay: In vitro tube formation assay of HMEC-1 cells on Matrigel; format: cell-based; settings: 24 hrs, 10 μM peptides
Protocol: FIGS. 8A-H. HPSE mediated the Sdc1-coupled VEGFR2 complex in endothelial cells induces angiogenesis. (FIG. 8A) Lysates from HPSE^low, HPSE^high and HMEC-1 cells are probed by immunoblotting for expression of HPSE. (FIG. 8B) HMEC-1 cells were seeded at equal density and grown in serum-free media for 24 hr in the absence or presence of 125 μg/ml of the HPSE inhibitor SST0001. After 24 hr, conditioned media were harvested, and the level of shed Sdc1 in the conditioned medium from each condition was determined by immunoblotting. (FIG. 8C) HMEC-1 cell lysate was incubated overnight with glutathione beads coated with GST or GST-S1ED. Capture of VLA-4 or VEGFR2 was detected by immunoblotting. (FIG. 8D) HMEC-1 cells were plated on IIICS for 3 hr and double stained for VLA-4 and Sdc1, VEGFR2 and Sdc1, or VLA-4 and VEGFR2. (FIG. 8E) HMEC-1 cells were treated with DMSO, VLA-4 blocking antibody P1H4, β1-integrin blocking antibody mAb13, 10 μg/ml MMP9 blocking antibody, 125 μg/ml HPSE inhibitor SST0001, Vandetanib, VEGFR2 blocking antibody, 30 μM S1ED^210-233 or 30 μM S1ED^214-240 and then plated on IIICS. Images were taken from random field with 200× magnification for counting attached and spread cells. (FIG. 8F) HMEC-1 cells were plated on IIICS in the presence of 10 μM of S1ED^210-236, S1ED^210-233, S1ED^215-240, and S1ED^214-240. Lysates were probed on immunoblots with antibodies against pY^1175 VEGFR2 and VEGFR2. (FIG. 8G) Transwell migration assays towards IIICS (for 16 hr) were performed for HMEC-1 cells in the presence of P1H4, SST0001, Anti-MMP9, Vandetanib, S1ED^210-236, S1ED^210-233, and S1ED^214-240. Images were taken from random field with 200× magnification for counting migrated cells. (FIG. 8H) A 96-well plate coated with 50 μl Matrigel containing 100 μg/ml IIICS per well was solidified at 37° C. for 2 hrs. HMEC-1 cells (2.5×10^4 cells/well) were seeded into the plate and cultured in media containing VEGF, SST0001, 10 μM of S1ED^210-236, S1ED^210-233, S1ED^215-240, and S1ED^214-240 for 24 hrs. Enclosed capillary networks of tubes were taken from random field with 200× magnification.

CAG myeloma cells = assay: Cell spreading / attachment assay of CAG myeloma cells on FN or VCAM-1; format: cell-based, human; settings: 20 ng/ml VEGF

| Substance | adhesion of P3X cells to FN [1] | invasion / migration of P3X cells through FN-coated filters [2] | tube formation by HMEC-1 cells (HMEC-1 cells) | induction of HPSE^low cell spreading by VEGF (CAG myeloma cells) |
| --- | --- | --- | --- | --- |
| S1ED^214-236: syndecan-1 ectodomain peptide, residues 214-236 (SEQ ID NO: 7) (ETSGENTAVVAVEPDRRNQSPVD) | without effect | blocked by either peptide |  |  |
| VEGF [reference compound] |  |  | not enhanced by VEGF | failed to induce spreading of the cells |
